Laboratory results reported in publication PMC11189555, “Aryl amino acetamides prevent Plasmodium falciparum ring development via targeting the lipid-transfer protein PfSTART1” (Nature Communications, 2024).
“And” between values parts separate entries of the source, which are not always exact repeats. Identical values can stand only once. Like-named read-outs stand apart in the source and are kept apart here.

Tests used:
[1] = test system: CR-WT parasites; experiment: Growth inhibition assay (72 h, LDH activity); assay type: cell-based, Plasmodium falciparum; settings: for EC50: n = 3
Procedure: Parasite growth assays with inhibitory compounds were performed as per[11] and are fully described in the Supplementary Information.
Molecular biology and transfection of P. falciparum: CRISPR method.
The full 5’ homology region of pfstart1 (either WT, N309K or N330K) was amplified from pPfSTART1-HA-2A-Neo-glmS with the same 5’ BglII primer and a new 3’ primer that replaced with PstI with SpeI and introduced a stop codon. The PCR product was then digested with BglII and SpeI and inserted into similarly digested p1.2 parasite vector2. The p1.2 vector had previously been inserted with a homology region amplified from the 3’ end of the pfstart1 gene (3’HB) to form a second homology block for double recombination. The primers used to amplify 3’HB are listed primers listed in […]
60 μg of p1.2-PfSTART1(WT/N309K/N330K) plasmid was linearised with KasI, precipitated in 3 M sodium acetate and ethanol (70% final concentration) overnight at -20°C. The DNA pellet was washed in cold 70% ethanol and resuspended in cytomix 3.
50 μ M of crRNA ( Table S 2) and 50 μM of tracRNA (Integrated DNA Technologies) were allowed to form a duplex (5 min at 95°C), and Cas9 enzyme (Integrated DNA Technologies) was added, and incubated for 20 min at room temperature 4. This crRNA -tracRNA -Cas9 mix was added to each DNA preparation and transfected to 3D7 ring parasites using the Bio -Rad Gene Pulser at 310 V and 950 μF.
Parasites containing the transfected DNA were selected using 2.5 nM WR99210 (Jacobus). Parasites lines were cloned using limiting dilution. Correct integration was tested by PCR (using primer START_5’UTR.F and START_Int.R1 , Table S 2), and sequencing was done using the primers START_3F and START_Int.R2 (Table S 2).
Growth inhibition assays. Synchronised ring-stage parasites (0.3-0.6% parasitemia, 2% haematocrit) were grown for 72 h in a serial-dilution of the compound under […]
and compound 4. Note that M-833 was first purchased from MolPort (MolPort -002-267-916) then made in-house at WEHI: the differences observed in EC50s across experiments are attributed to the different batches of M -833. For some experiments, 0, 0.25 or 2.5 mM of glucosamine (GlcN) was also added. Experiments were set up in technical duplicates or triplicates. Following a freeze -thaw cycle, lactate dehydrogenase (LDH) activity was assessed as an indicator of parasite growt h 5. 30 μL of parasite culture was incubated for 30 min in the dark with 75 μL Malstat mixture (0.1 M Tris pH 9.0, 20 g/L lactic acid, pH 7.5, 0.2% Triton-X100, 0.5 g/L acetylpyridine adenine dinucleotide (APAD, Sigma), 200 μg/mL nitroblue tetrazolium (NBT; Sigma), 1 μg/mL phenozine ethosulfate (PES; Sigma)). Absorbance was then measured at 650 nm, transformed using the formula below, plotted against the logarithm of the concentrations, and a non-linear regression (log(inhibitor) vs. response, variable slope) was calculated using GraphPad Prism to assess the half-inhibitory […]
Growth inhibition % = (1 − average(sample)− average(uRBC)) ∗ 100 […]
The DMSO samples were also used to assess growth of parasite in the presence of 0.25 and 2.5 mM GlcN (normalised by DMSO in 0 mM GlcN). […]

[2] = test system: female gametes from mature stage V gametocytes; experiment: Dual gamete formation assay: female gamete formation (Pfs25 expression); assay type: cell-based, Plasmodium falciparum
Procedure: The compounds were tested in the P. falciparum Dual Gamete Formation Assay (PfDGFA)[84], fully described in the Supplementary Information. […]
Dual gamete formation assays. The compounds were tested in the P. falciparum Dual Gamete Formation Assay (PfDGFA) 13. Briefly, mature stage V gametocytes were exposed to compounds for 48 h at 37°C in 384 well plates in gametocyte culture medium (RPMI 1640 supplemented with 25 mM HEPES, 50 μg/mL hypoxanthine, 4.8 g/L NaHCO3, 2 mM L-glutamine, 5% pooled type AB serum, 0.5% Albumax II (Gibco)) under a 1% O2, 3% CO2, 96% N2 environment. Gametogenesis was then triggered by the addition of 10 μL ookinete medium (gametocyte culture medium supplemented with 100 μM xanthurenic acid and 0.27 µg/mL Cy3-labelled anti-Pfs25 antibody) to each well at room temperature. Plates were then cooled on a metal block at 4°C for four min to ensure even cooling and then stabilised for a further 4 min at 28°C. At 20 min post-induction, male gametogenesis was recorded in each well by automated brightfield microscopy using a x4 objective lens and 1.5x magnifier (x6 effective magnification). Afterward, plates were incubated in the dark at room temperature for 24 h and then female gametogenesis recorded in each well by automated fluorescence microscopy (anti-Pfs25-positive cells). All experiments were performed in quadruplicate with DMSO and cabamiquine (DDD107498)17 as negative and positive controls respectively. All data was evaluated in comparison to the positive and negative controls to calculate percentage inhibition of male and female gametocytes, and dose response analysis and IC50 calculation performed using GraphPad Prism. […]

Cc1cc(Cl)c(S(=O)(=O)N2CCCC2)cc1OCC(=O)NC1CCCCC1 [M-833]
Growth inhibition assay, NORMALISED ([1]; CR-WT, 0 mM GlcN, conc 41.1523 nM): 25.7439 and 21.0208
Growth inhibition assay, NORMALISED ([1]; CR-WT, 0 mM GlcN, conc 123.457 nM): 61.3173 and 56.525
Growth inhibition assay, NORMALISED ([1]; CR-WT, 0 mM GlcN, conc 370.37 nM): 82.8843
Growth inhibition assay, NORMALISED ([1]; CR-WT, 0 mM GlcN, conc 1111.11 nM): 89.7059
Growth inhibition assay, NORMALISED ([1]; CR-WT, 0 mM GlcN, conc 3333.33 nM): 91.3866
Growth inhibition assay, NORMALISED ([1]; CR-WT, 0 mM GlcN, conc 10000 nM): 91.9797
NORMALISED (growth inhibition, LDH absorbance vs DMSO and uRBC) ([1]; CR-WT, 0.25 mM GlcN, M833 dilution point 1 of 10 (starting concentration 10 uM)): 91.6378 and 97.2065 and 92.208
NORMALISED (growth inhibition, LDH absorbance vs DMSO and uRBC) ([1]; CR-WT, 0.25 mM GlcN, M833 dilution point 2 of 10 from 10 uM start): 88.8272 and 91.5474 and 95.4251
NORMALISED (growth inhibition, LDH absorbance vs DMSO and uRBC) ([1]; CR-WT, 0.25 mM GlcN, M833 dilution point 3 of 10 from 10 uM start): 89.2783 and 89.1988 and 95.5364
NORMALISED (growth inhibition, LDH absorbance vs DMSO and uRBC) ([1]; CR-WT, 0.25 mM GlcN, M833 dilution point 4 of 10 from 10 uM start): 88.272 and 87.9755 and 93.8563
NORMALISED (growth inhibition, LDH absorbance vs DMSO and uRBC) ([1]; CR-WT, 0.25 mM GlcN, M833 dilution point 5 of 10 from 10 uM start): 75.3643 and 67.6575 and 81.1437
NORMALISED (growth inhibition, LDH absorbance vs DMSO and uRBC) ([1]; CR-WT, 0.25 mM GlcN, M833 dilution point 6 of 10 from 10 uM start): 45.0382 and 30.6544 and 52.9049
NORMALISED (growth inhibition, LDH absorbance vs DMSO and uRBC) ([1]; CR-WT, 2.5 mM GlcN, M833 dilution point 1 of 10 (starting concentration 10 uM)): 89.8305 and 92.5684 and 90.1213
NORMALISED (growth inhibition, LDH absorbance vs DMSO and uRBC) ([1]; CR-WT, 2.5 mM GlcN, M833 dilution point 2 of 10 from 10 uM start): 86.1896 and 88.6745 and 91.3765
NORMALISED (growth inhibition, LDH absorbance vs DMSO and uRBC) ([1]; CR-WT, 2.5 mM GlcN, M833 dilution point 3 of 10 from 10 uM start): 89.5794 and 86.621 and 91.7037
NORMALISED (growth inhibition, LDH absorbance vs DMSO and uRBC) ([1]; CR-WT, 2.5 mM GlcN, M833 dilution point 4 of 10 from 10 uM start): 86.2524 and 82.3118 and 91.2012
NORMALISED (growth inhibition, LDH absorbance vs DMSO and uRBC) ([1]; CR-WT, 2.5 mM GlcN, M833 dilution point 5 of 10 from 10 uM start): 84.1808 and 81.8139 and 88.9226
NORMALISED (growth inhibition, LDH absorbance vs DMSO and uRBC) ([1]; CR-WT, 2.5 mM GlcN, M833 dilution point 6 of 10 from 10 uM start): 79.5355 and 74.3155 and 81.4326
NORMALISED (growth inhibition, LDH absorbance vs DMSO and uRBC) ([1]; CR-WT, 2.5 mM GlcN, M833 dilution point 7 of 10 from 10 uM start): 64.0929 and 56.4406 and 58.0509
NORMALISED (growth inhibition, LDH absorbance vs DMSO and uRBC) ([1]; CR-WT, 2.5 mM GlcN, M833 dilution point 8 of 10 from 10 uM start): 44.6955 and 44.5084 and 37.5789
NORMALISED (growth inhibition, LDH absorbance vs DMSO and uRBC) ([1]; CR-WT, 2.5 mM GlcN, M833 dilution point 9 of 10 from 10 uM start): 25.0175 and 29.9435 and 28.2047
NORMALISED (growth inhibition, LDH absorbance vs DMSO and uRBC) ([1]; CR-WT, 2.5 mM GlcN, M833 dilution point 10 of 10 from 10 uM start): 14.8750 and 11.4878 and 17.8749
EC50 ([1]; Plasmodium falciparum, 72 h, Fig 2D, CR-WT, 72 h, read-out: EC50 (95% confidence interval)): 0.0512 µM
inhibition at 0.37037 µM ([1]; Plasmodium falciparum, CR-WT, 0 mM GlcN, conc 370.37 nM, read-out: Growth inhibition assay, NORMALISED): 88.3%
inhibition at 1.11111 µM ([1]; Plasmodium falciparum, CR-WT, 0 mM GlcN, conc 1111.11 nM, read-out: Growth inhibition assay, NORMALISED): 91.9%
inhibition at 3.33333 µM ([1]; Plasmodium falciparum, CR-WT, 0 mM GlcN, conc 3333.33 nM, read-out: Growth inhibition assay, NORMALISED): 91.6%
inhibition at 10 µM ([1]; Plasmodium falciparum, CR-WT, 0 mM GlcN, conc 10000 nM, read-out: Growth inhibition assay, NORMALISED): 93.5%
EC50 ([1]; Plasmodium falciparum, read-out: EC50 M-833 (95% confidence interval), Fig 3F, CR-WT, 0.25 mM GlcN): 0.0396 µM
EC50 ([1]; Plasmodium falciparum, read-out: EC50 M-833 (95% confidence interval), Fig 3F, CR-WT, 2.5 mM GlcN): 0.00658 µM
fold reduction of EC50 on addition of 2.5 mM GlcN ([1]; {}): 7.8 fold
inhibition of female gamete formation ([2]; 1 µM, 48 h treatment of mature gametocytes): no inhibition
Dual Gamete Formation Assay: Female at 1 µM, Mean ([2]; mean of 4 plates): -1.423
